Patent US20250084091A1, “INHIBITORS OF SARS-COV-2” (The Texas A&M University System, priority 2021, published 2025)
Like-named read-outs stand apart in the source and are kept apart here.

Columns and labels:
[1] = Uninfected host cell cytotoxicity counter screen; type: cell-based; details: human
Method: Uninfected host cell cytotoxicity counter screen: HeLa-ACE2 cells were maintained as described for the infection assay and seeded in the assay-ready plates at 400 cells/well. Plates were incubated for 24 hours at 37° C. 5% CO2. To assess cell viability, the Image-iT DEAD green reagent was used according to manufacturer instructions. Cells were fixed with 4% paraformaldehyde, and counterstained with DAPI. Fixed cells are imaged as described above.
Viral replication data analysis: Data from the primary screen and the host cell cytotoxicity screen are normalized to neutral (DMSO) […] inhibitor controls (2.5 μM Remdesivir for antiviral effect and 10 μM puromycin for infected host cell toxicity). For the uninfected host cell cytotoxicity counter-screen 40 μM puromycin is used as the positive control. Concentration response experiments will be tested in triplicate.

HeLa-ACE2 cells = test: cells; type: cell-based; details: Table 2, total cell count in infected plates
[2] = molecular target: SARS-CoV-2 main protease (Mpro) (Severe acute respiratory syndrome coronavirus 2, UniProt P0DTD1); test: biochemical
[3] = tested on: SARS-CoV-2 (strain USA-WA1/2020); test: microbe, parasite or virus in culture; type: cell-based
[4] = Severe acute respiratory syndrome coronavirus 2, Table 2, SARS-CoV-2 infected HeLa-ACE2 cells, read-out: CoV-2 HeLa EC50
[5] = Table 3, select example compounds against mpro, read-out: Enzyme IC50
[6] = Severe acute respiratory syndrome coronavirus 2, HeLa, Table 3, read-out: CoV-2 HeLa EC50
[7] = Severe acute respiratory syndrome coronavirus 2, HeLa-ACE2, read-out: CoV-2 HeLa EC50, Table 2, SARS-CoV-2 infected HeLa-ACE2 cells
[8] = Table 2, uninfected cells, 24 hours, read-out: Uninfected HeLa-ACE2 CC50

SMILES	CC50 at 24 h [1] [µM]	EC50 (HeLa-ACE2 cells) [µM]	IC50 ([2]; Table 2, read-out: Enzyme IC50) [nM]	EC50 [3, 4] [nM]	IC50 [2, 5] [nM]	EC50 [3, 6] [nM]	EC50 [3, 7] [nM]	CC50 at 24 h [1, 8] [µM]	IC50 ([2]; Enzyme IC50, Table 2) [nM]	IC50 ([2]; Enzyme IC50, Table 3, select example compounds against mpro) [nM]	EC50 ([3]; Severe acute respiratory syndrome coronavirus 2, HeLa, read-out: CoV-2 HeLa EC50, Table 3) [nM]
O=C(c1cncc([N+](=O)[O-])c1)N1CCN(C2c3ccccc3CCc3ccccc32)CC1 [ZS-339, (5-nitro-3-pyridyl)-[4-(2-tricyclo[9.4.0.03,8]pentadeca-1(11),3(8),4,6,12,14-hexaenyl)piperazin-1-yl]methanone]	> 39.8	> 9.61	1150	4060	–	–	–	–	–	–	–
O=C(c1cccnc1)N1CCN(C(c2ccccc2)c2cccnc2)CC1 (centres unmarked) [MKP-1183, 1-[phenyl(pyridin-3-yl)methyl]-4-(pyridine-3-carbonyl)piperazine]	> 39.8	> 9.61	1700	4340	–	–	–	–	–	–	–
O=C(c1cncc(F)c1)N1CCN(C(c2ccccc2)c2ccccc2)CC1 [AA-592, (4-benzhydrylpiperazin-1-yl)(5-fluoropyridin-3-yl)methanone]	> 39.8	> 9.61	970	2720	–	–	–	–	–	–	–
Cc1cncc(C(=O)N2CCN(C(c3ccc(F)cc3)c3ccccc3F)CC2)c1 (centres unmarked) [MKP-1277, 1-[(2-fluorophenyl)(4-fluorophenyl)methyl]-4-(5-methylpyridine-3-carbonyl)piperazine]	> 39.8	2.7	150	747	–	–	–	–	–	–	–
O=C(c1cncc2[nH]ccc12)N1CCC(=C2c3ccccc3CS(=O)(=O)c3ccccc32)CC1 [NZ-805, [4-(5,5-dioxo-6H-benzo[c][1]benzothiepin-11-ylidene)-1-piperidyl]-(1H-pyrrolo[2,3-c]pyridin-4-yl)methanone]	> 39.8	0.064	48	58	14	58	–	–	–	–	–
O=C(c1cncc(F)c1)N1CCN(C(c2ccccc2)c2cccnc2)CC1 (centres unmarked) [MKP-1192, 1-(5-fluoropyridine-3-carbonyl)-4-[phenyl(pyridin-3-yl)methyl]piperazine]	> 39.8	> 9.61	1930	4830	–	–	–	–	–	–	–
O=C(c1cncc(F)c1)N1CCC(C(O)(c2ccccc2)c2ccccc2)CC1 [NZ-778, [1-(5-fluoropyridine-3-carbonyl)piperidin-4-yl]diphenylmethanol]	> 39.8	> 9.61	1700	3630	–	–	–	–	–	–	–
Cc1cncc(C(=O)N2CCC(N(c3ccccc3)c3ccccc3)CC2)c1 [AA-613, (4-(diphenylamino)piperidin-1-yl)(5-methylpyridin-3-yl)methanone]	> 39.8	> 9.61	820	–	–	–	> 9610	–	–	–	–
O=C(c1cncc2[nH]ccc12)N1CCN(C2c3ccccc3CS(=O)(=O)c3ccccc32)CC1 (centres unmarked) [NZ-809, [4-(5,5-dioxo-6,11-dihydrobenzo[c][1]benzothiepin-11-yl)piperazin-1-yl]-(1H-pyrrolo[2,3-c]pyridin-4-yl)methanone]	> 39.8	0.111	43	88	15	88	–	–	–	–	–
O=C(c1cncc(Br)c1)N1CCC(=C2c3ccccc3CS(=O)(=O)c3ccccc32)CC1 [NZ-802, (5-bromo-3-pyridyl)-[4-(5,5-dioxo-6H-benzo[c][1]benzothiepin-11-ylidene)-1-piperidyl]methanone]	> 39.8	0.041	67	60	–	–	–	–	–	–	–
O=C(c1cncc(Cl)c1)N1CCN(C2c3ccccc3CCc3ccccc32)CC1 [ZS-317, (5-chloro-3-pyridyl)-[4-(2-tricyclo[9.4.0.03,8]pentadeca-1(11),3(8),4,6,12,14-hexaenyl)piperazin-1-yl]methanone]	> 39.8	> 9.61	180	900	–	–	–	–	–	–	–
CC(=O)Nc1cncc(C(=O)N2CC3CCC(C2)N3C(c2ccccc2)c2ccccc2)c1 [AA-633, N-(5-(8-benzhydryl-3,8-diazabicyclo[3.2.1]octane-3-carbonyl)pyridin-3-yl)acetamide]	–	2.77	–	–	–	–	1580	> 39.8	640	–	–
O=C(c1cncc(F)c1)N1CCC(=C(c2ccccc2)c2ccccc2)CC1 [NZ-780, 3-[4-(diphenylmethylidene)piperidine-1-carbonyl]-5-fluoropyridine]	30.1	> 9.61	310	1390	–	–	–	–	–	–	–
O=C(c1cncc(Cl)c1)N1CCN(C(c2ccccc2)c2ccsc2)CC1 (centres unmarked) [MKP-1221, 1-(5-chloropyridine-3-carbonyl)-4-[phenyl(thiophen-3-yl)methyl]piperazine]	> 39.8	0.556	330	831	–	–	–	–	–	–	–
O=C(c1cccnc1)N1CCC(=C(c2ccccc2)c2ccccc2)CC1 [NZ-772, 3-[4-(diphenylmethylidene)piperidine-1-carbonyl]pyridine]	> 39.8	> 9.61	320	1010	–	–	–	–	–	–	–
CNC(=O)c1cccc(C(c2ccccc2)N2C3CCC2CN(C(=O)c2cncc(C)c2)C3)c1 (centres unmarked) [AA-630, N-methyl-3-((3-(5-methylnicotinoyl)-3,8-diazabicyclo[3.2.1]octan-8-yl)(phenyl)methyl)benzamide]	–	8.56	–	–	–	–	7730	> 39.8	1370	–	–
O=C(c1cncc(C(F)(F)F)c1)N1CCN(C(c2ccccc2)c2ccccc2)CC1 [AA-590, (4-benzhydrylpiperazin-1-yl)(5-(trifluoromethyl)pyridin-3-yl)methanone]	> 39.8	> 9.61	990	4900	–	–	–	–	–	–	–
Cc1ccncc1C(=O)N1CCN(C(c2ccccc2)c2ccccc2)CC1 [AA-611, (4-benzhydrylpiperazin-1-yl)(4-methylpyridin-3-yl)methanone]	> 39.8	> 9.61	2500	–	–	–	> 9610	–	–	–	–
O=C(c1cncc2nc[nH]c12)N1CC2CCC(C1)N2C(c1ccccc1)c1ccccc1 [AA-642, (8-benzhydryl-3,8-diazabicyclo[3.2.1]octan-3-yl)(1H-imidazo[4,5-c]pyridin-7-yl)methanone]	–	3.24	–	–	–	–	1050	> 39.8	210	–	–
O=C(c1cncc(Cl)c1)N1CCN(C(c2ccccc2)c2cccnc2)CC1 (centres unmarked) [MKP-1193, 1-(5-chloropyridine-3-carbonyl)-4-[phenyl(pyridin-3-yl)methyl]piperazine]	> 39.8	> 9.61	450	810	–	–	–	–	–	–	–
O=C(c1cncc(O)c1)N1CCN(C(c2ccccc2)c2ccccc2)CC1 [AA-599, (4-benzhydrylpiperazin-1-yl)(5-hydroxypyridin-3-yl)methanone]	> 39.8	> 9.61	1600	6030	–	–	–	–	–	–	–
O=C(c1cncnc1)N1CCN(C(c2ccccc2)c2ccccc2)CC1 [AA-577, (4-benzhydrylpiperazin-1-yl)(pyrimidin-5-yl)methanone]	> 39.8	> 9.61	8300	8510	–	–	–	–	–	–	–
Cc1cncc(C(=O)N2CC3CCC(C2)N3C(c2cccc(F)c2)c2cccc(F)c2)c1 [AA-625, (8-(bis(3-fluorophenyl)methyl)-3,8-diazabicyclo[3.2.1]octan-3-yl)(5-methylpyridin-3-yl)methanone]	–	0.085	–	–	–	–	72	26.5	33	4	72
